Drawing on patent US9393232B2 (BeiGene, Ltd., priority 2013, dated 2016), this text covers IC50 and EC50 for 28 molecules.

Molecules are shown by their SMILES. Like-named read-outs stand apart in the source and are kept apart here.

In general, IC50 refers to the midpoint of a concentration-inhibition curve. A word on the EC50: it is the concentration giving half of the maximal effect.

Assay [1] addresses Recombinant human BRD4(1-477) (Homo sapiens (Human), UniProt O60885). The assay is described as follows: BRD4 TR-FRET biochemical IC50 assay. Type of assay: binding. The conditions noted are these: TR-FRET, tetra-acetylated histone peptide; read-out: BRD4 IC50. (TR-FRET usually uses a lanthanide donor and a delayed reading to cut background.)
Another assay has as its system MV4-11. As to the kind of experiment: MV4-11 (3 Days) EC50. Type of assay: cell-based.

On to `Cc1noc(C)c1-c1ccc2c(c1)C(O)(c1ccccc1)C(=O)N2` (single isomer, unassigned) [Compound 1.1a, 5-(3,5-dimethylisoxazol-4-yl)-3-hydroxy-3-phenylindolin-2-one], for which the IC50 in assay [1] came to 35 nM. Besides, in the assay on MV4-11 (Homo sapiens, 72 h), the concentration giving a half-maximal response (EC50) is 58 nM.

Take `Cc1noc(C)c1-c1ccc2c(c1)C(N)(c1ccccc1)C(=O)N2` (single isomer, unassigned) [Compound 2.2a, 3-amino-5-(3,5-dimethylisoxazol-4-yl)-3-phenylindolin-2-one]: the IC50 in assay [1] worked out at 24 nM. Also, the EC50 in the assay with MV4-11 was determined as 159 nM. With `Cc1noc(C)c1-c1ccc2c(c1)C(N)(c1ccccc1)C(=O)N2` (single isomer, unassigned) [Compound 2.2b, 3-amino-5-(3,5-dimethylisoxazol-4-yl)-3-phenylindolin-2-one], the IC50 in assay [1] stood at 3600 nM. Further, the EC50 in the assay on MV4-11 is greater than 10000 nM. With `Cc1noc(C)c1-c1ccc2c(c1)C(N[C@@H](CO)C(C)C)(c1ccccc1)C(=O)N2` (single isomer, unassigned) [Compound 2.11b], in assay [1], the IC50 was 150 nM. This molecule also registered an EC50 in the assay on MV4-11 (Homo sapiens, MV4-11, 72 h) of 180 nM. Turning to `Cc1noc(C)c1-c1ccc2c(c1)C(N[C@H](CO)C(C)C)(c1ccccc1)C(=O)N2` (single isomer, unassigned) [Compound 2.12a], the IC50 in assay [1] amounted to 89 nM. In the assay with MV4-11 (Homo sapiens, MV4-11, 72 h), the midpoint of the response, the EC50, lay at 144 nM. Consider `Cc1noc(C)c1-c1ccc2c(c1)C(NC[C@@H](C)O)(c1ccccc1)C(=O)N2` (single isomer, unassigned) [Compound 2.13b], for which the half-maximal inhibitory concentration (IC50) in assay [1] is 81 nM. Besides, in the assay with MV4-11 (Homo sapiens, MV4-11, 72 h), the EC50 was found to be 140 nM. With `Cc1noc(C)c1-c1ccc2c(c1)C(NC[C@H](C)O)(c1ccccc1)C(=O)N2` (single isomer, unassigned) [Compound 2.14a], in assay [1], the IC50 was 78 nM. In addition, the EC50 in the assay with MV4-11 (Homo sapiens, MV4-11, 72 h) worked out at 115 nM. The corresponding values for `Cc1noc(C)c1-c1ccc2c(c1)C(N[C@H](CO)C(C)C)(C1CCCCC1)C(=O)N2` (single isomer, unassigned) [Compound 2.19b] are 170 nM and 282 nM. Take `Cc1noc(C)c1-c1ccc2c(c1)C(N[C@@H](CO)C(C)C)(C1CCCCC1)C(=O)N2` (single isomer, unassigned) [Compound 2.20b]: the IC50 in assay [1] is 350 nM. Further, the EC50 in the assay on MV4-11 (Homo sapiens, MV4-11, 72 h) came to 377 nM. On the same counts, the results for `COC(=O)[C@@H]1C[C@@H](O)CN1C1(c2ccccc2)C(=O)Nc2ccc(-c3c(C)noc3C)cc21` (single isomer, unassigned) [Compound 2.50a] are 460 nM and 681 nM. Take `Cc1noc(C)c1-c1ccc2c(c1)C(c1ccsc1)(N1CCC[C@@H](N)C1)C(=O)N2` (single isomer, unassigned) [Compound 4.6a]: the IC50 in assay [1] stood at 30 nM. Also, in the assay on MV4-11, the EC50 is 102 nM. Take `Cc1noc(C)c1-c1ccc2c(c1)C(c1ccsc1)(N1CCC[C@@H](N)C1)C(=O)N2` (single isomer, unassigned) [Compound 4.6b]: in assay [1], the IC50 stood at 24 nM. For the same molecule, the EC50 with MV4-11 amounted to 35 nM. For `Cc1noc(C)c1-c1ccc2c(c1)C(c1ccsc1)(N1CCC[C@H](N)C1)C(=O)N2` (single isomer, unassigned) [Compound 4.7a], the IC50 in assay [1] came to 24 nM. The same molecule displayed an EC50 in the assay on MV4-11 (Homo sapiens, MV4-11, 72 h) of 35 nM. For `Cc1noc(C)c1-c1ccc2c(c1)C(c1ccsc1)(N1CCC[C@H](N)C1)C(=O)N2` (single isomer, unassigned) [Compound 4.7b], in assay [1], the half-maximal inhibitory concentration (IC50) is 8 nM. In the assay on MV4-11 (Homo sapiens, MV4-11, 72 h), this molecule came in with an EC50 of 34 nM. In the case of `Cc1noc(C)c1-c1ccc2c(c1)C(O)(c1ccccc1)C(=O)N2` (stereo not shown) [Compound 1.1, 5-(3,5-dimethylisoxazol-4-yl)-3-hydroxy-3-phenylindolin-2-one], in assay [1], the IC50 was determined as 51 nM. In addition, the EC50 with MV4-11 (Homo sapiens, 72 h) stood at 124 nM.

On to `Cc1noc(C)c1-c1ccc2c(c1)C(O)(c1ccc(Cl)cc1)C(=O)N2` (stereo not shown) [Compound 1.2, 3-(4-chlorophenyl)-5-(3,5-dimethylisoxazol-4-yl)-3-hydroxyindolin-2-one], for which the IC50 in assay [1] turned out to be 260 nM. The EC50 in the assay on MV4-11 (Homo sapiens, 72 h) was determined as 364 nM. On the same counts, the results for `Cc1noc(C)c1-c1ccc2c(c1)C(O)(c1cccc(Cl)c1)C(=O)N2` (stereo not shown) [Compound 1.3, 3-(3-chlorophenyl)-5-(3,5-dimethylisoxazol-4-yl)-3-hydroxyindolin-2-one] are 380 nM and 369 nM. Turning to `Cc1noc(C)c1-c1ccc2c(c1)C(O)(c1ccc(F)cc1)C(=O)N2` (stereo not shown) [Compound 1.4, 5-(3,5-dimethylisoxazol-4-yl)-3-(4-fluorophenyl)-3-hydroxyindolin-2-one], the IC50 in assay [1] is 100 nM. Also, the response with MV4-11 (Homo sapiens, 72 h) was half-maximal at 181 nM (EC50). The corresponding values for `Cc1ccc(C2(O)C(=O)Nc3ccc(-c4c(C)noc4C)cc32)cc1` (stereo not shown) [Compound 1.5, 5-(3,5-dimethylisoxazol-4-yl)-3-hydroxy-3-p-tolylindolin-2-one] are 180 nM and 285 nM.

`Cc1cc(C2(O)C(=O)Nc3ccc(-c4c(C)noc4C)cc32)ccc1F` (stereo not shown) [Compound 1.6, 5-(3,5-dimethylisoxazol-4-yl)-3-(4-fluoro-3-methylphenyl)-3-hydroxyindolin-2-one]: in assay [1], the IC50 is 380 nM. The molecule further displayed an EC50 with MV4-11 (Homo sapiens, 72 h) of 594 nM. In the case of `Cc1ccccc1C1(O)C(=O)Nc2ccc(-c3c(C)noc3C)cc21` (stereo not shown) [Compound 1.7, 5-(3,5-dimethylisoxazol-4-yl)-3-hydroxy-3-o-tolylindolin-2-one], the IC50 in assay [1] worked out at 570 nM. Also, the concentration for a half-maximal effect (EC50) in the assay on MV4-11 (Homo sapiens, 72 h) turned out to be 1500 nM.

Turning to `Cc1noc(C)c1-c1ccc2c(c1)C(O)(c1ccc(F)c(F)c1)C(=O)N2` (stereo not shown) [Compound 1.8, 3-(3,4-difluorophenyl)-5-(3,5-dimethylisoxazol-4-yl)-3-hydroxyindolin-2-one], the IC50 in assay [1] came to 200 nM. Besides, the EC50 in the assay with MV4-11 (Homo sapiens, 72 h) came to 425 nM. As to `COc1ccc(C2(O)C(=O)Nc3ccc(-c4c(C)noc4C)cc32)cc1` (stereo not shown) [Compound 1.9, 5-(3,5-dimethylisoxazol-4-yl)-3-hydroxy-3-(4-methoxyphenyl)indolin-2-one], the IC50 in assay [1] was determined as 410 nM. This molecule also had an EC50 in the assay on MV4-11 (Homo sapiens, 72 h) of 536 nM.

For the molecule `Cc1ccsc1C1(O)C(=O)Nc2ccc(-c3c(C)noc3C)cc21` (stereo not shown) [Compound 1.13, 5-(3,5-dimethylisoxazol-4-yl)-3-hydroxy-3-(3-methylthiophen-2-yl)indolin-2-one], the IC50 in assay [1] was found to be 560 nM. In the assay on MV4-11 (Homo sapiens, 72 h), this molecule yielded an EC50 of 746 nM. With `Cc1noc(C)c1-c1ccc2c(c1)C(O)(C1CCCCC1)C(=O)N2` (stereo not shown) [Compound 1.15, 3-cyclohexyl-5-(3,5-dimethylisoxazol-4-yl)-3-hydroxyindolin-2-one], the IC50 in assay [1] amounted to 77 nM. The same molecule had an EC50 in the assay on MV4-11 (Homo sapiens, 72 h) of 183 nM. With `Cc1noc(C)c1-c1ccc2c(c1)C(O)(C1CCCC1)C(=O)N2` (stereo not shown) [Compound 1.17, 3-cyclopentyl-5-(3,5-dimethylisoxazol-4-yl)-3-hydroxyindolin-2-one], the IC50 in assay [1] came out at 270 nM. Moreover, in the assay with MV4-11 (Homo sapiens, 72 h), the EC50 amounted to 671 nM. The corresponding values for `Cc1noc(C)c1-c1ccc2c(c1)C(O)(C1CCC1)C(=O)N2` (stereo not shown) [Compound 1.18, 3-cyclobutyl-5-(3,5-dimethylisoxazol-4-yl)-3-hydroxyindolin-2-one] are 510 nM and 1140 nM. In turn, `Cc1noc(C)c1-c1ccc2c(c1)C(c1ccsc1)(N1CCCC(O)C1)C(=O)N2` (stereo not shown) [Compound 4.8, 5-(3,5-dimethylisoxazol-4-yl)-3-(3-hydroxypiperidin-1-yl)-3-(thiophen-3-yl)indolin-2-one] came in with an EC50 in the assay with MV4-11 (Homo sapiens, MV4-11, 72 h) of 42 nM.
